We go through one substance from patent publication EP0898962A1, “Transdermal patches and methods for inactivating skin proteases” (Becton, Dickinson and Company, priority 1997, dated 1999).

The data set in a line: Incubation of peptide drugs on human skin. Type of data set: in vitro ADME. The text has this: Effects of proteases on in vivo or in vitro transdermal delivery has been reported for vasopressin and vasopressin analogues (Morimoto et al., Int. Journal Pharmaceutics 81: 119-125, 1992), des-enkephalon-γ-endorphin (Bodde et al., Biochem. Soc. Trans. 17: 943-945, 1989), leucine enkephalin (Choi at al., 1990), and salmon calcitonin (SCT) (Morimoto et al., J. Pharm. Pharmacol. 44; 216-218, 1992). This was concluded because addition of protease inhibitors appear to enhance delivery as determined by increased biological effect of the peptides. For example, camostat mesilate (a serine protease inhibitor) increased the hypocalcemic effect of iontophoretically-delivered SCT (Morimoto, J. Pharm. Pharmacol. 1992) and the antidiuretic effects of vasopressin delivered iontophoretically in rats (Morimoto, Int. Journal Pharmaceutics, 1992). We have observed that incubation of insulin analogues or SCT on human skin results in degradation, which supports the notion that proteolysis accounts for previously observed losses of these peptide drugs during iontophoretic delivery.

As to salmon calcitonin [SCT], the “result of incubation on human skin” value was “degradation”.
